From US4513003A, “Process for protecting wood using N-(dichlorofluoromethylthio)-3,6-endomethylene-Δ^4 -tetrahydrophthalimide” (Bayer Aktiengesellschaft, priority 1981, dated 1985) come the findings set out here.

The structures appear in SMILES notation. Converted amounts (≈) assume the structure as drawn. Read-outs that look alike come from different tables or passages of the source.

One data set relates to Alternaria tenuis. Nature of the data set: minimum inhibitory concentration against fungi (agar). Type of data set: cell-based. The note with it: Alternaria alternata, 336 h. How it is done: (§1) An agar prepared from beer wort and peptone is mixed with the substance according to the invention at concentrations from 0.5 mg/l to 5,000 mg/l.
(§2) After storage for 2 weeks at 28° C. and 60 to 70% relative atmospheric humidity, the MIC is determined. The MIC is the lowest concentration of active agent with which no growth by the type of microbe used ensues; it is given in the table below.

A further data set deals with Aspergillus niger. The description is as above. Format: cell-based. To be noted: 336 h. How it is done:
as §1, §2

The subject of a further data set is Cladosporium herbarum. The description is as above. The note with it: 336 h. Format: cell-based. How it is done: as §1, §2
The test system of the next data set is Coniophora cerebella. The description is as above. To be noted: 336 h. Format: cell-based. As for the experimental part: as §1, §2
In another data set the test system is Paecilomyces varioti. The data set is described as above. To be noted: 336 h. Type of data set: cell-based. As for the experimental part:
as §1, §2

In a further data set the test system is Penicillium citrinum. The description is as above. Format: cell-based. The note with it: 336 h. As for the experimental part:
as §1, §2

The next data set has as its system Penicillium glaucum. The data set is described as above. Type of data set: cell-based. The note with it: 336 h. As for the experimental part: as §1, §2
The subject of the next data set is Pullularia pullulans. The description is as above. Format: cell-based. To be noted: 336 h. How it is done:
as §1, §2

For a further data set, the system named is Stachybotris atra C. The description is as above. To be noted: 336 h. Type of data set: cell-based. How it is done:
as §1, §2

In a further data set the test system is Trichoderma viride. Described as above. Type of data set: cell-based. The note with it: 336 h. As for the experimental part: as §1, §2
For the next data set, the system named is Escherichia coli. Nature of the data set: action against bacteria, MIC (bouillon agar). To be noted: 336 h. Format: cell-based. As for the experimental part:
An agar, containing bouillon as a nutrient medium, is treated with the active agents A and B (Example 2) given in Table II at concentrations from 1 to 5,000 ppm. The nutrient medium is then inoculated with either Escherichia coli or Staphylococcus aureus and the inoculated medium is maintained for 2 weeks at 28° C. and 60 to 70% relative atmospheric humidity. The MIC is the lowest concentration of active agent with which no growth by the type of microbe used ensues.

The nature of data set [1]: solubility of substance A compared to substance B. Type of data set: physicochemical. How it is done: Solubility of substance A compared to substance B (g/l at 20° C.): […]
[2] abbreviates: beer wort/peptone agar, 2 weeks at 28° C., 60 to 70% relative humidity, read-out: MIC.

Turning to `O=C1C2C3C=CC(C3)C2C(=O)N1SC(F)(Cl)Cl` (stereo not shown) [A], the MIC in the data set on Alternaria tenuis (Alternaria tenuis, beer wort/peptone agar, 2 weeks at 28° C., 60 to 70% relative humidity, read-out: MIC) was 10 µg/mL (≈ 0.0338 mM); in the data set on Aspergillus niger (setting [2]) it was 200 µg/mL (≈ 0.675 mM); in the data set with Cladosporium herbarum (setting [2]), 7 µg/mL (≈ 0.0236 mM); with Coniophora cerebella (setting [2]), < 1 µg/mL; in the data set on Paecilomyces varioti (Paecilomyces varioti, beer wort/peptone agar, 2 weeks at 28° C., 60 to 70% relative humidity, read-out: MIC), 10 µg/mL (≈ 0.0338 mM); with Penicillium citrinum (setting [2]), 7 µg/mL (≈ 0.0236 mM). The MIC in the data set on Penicillium glaucum (Penicillium glaucum, beer wort/peptone agar, 2 weeks at 28° C., 60 to 70% relative humidity, read-out: MIC) amounted to 10 µg/mL (≈ 0.0338 mM); with Pullularia pullulans (Pullularia pullulans, beer wort/peptone agar, 2 weeks at 28° C., 60 to 70% relative humidity, read-out: MIC) it was 5 µg/mL (≈ 0.0169 mM); in the data set with Stachybotris atra C. (Stachybotris atra C., beer wort/peptone agar, 2 weeks at 28° C., 60 to 70% relative humidity, read-out: MIC) it was 15 µg/mL (≈ 0.0507 mM); in the data set with Trichoderma viride (setting [2]) it was 200 µg/mL (≈ 0.675 mM); in the data set on Escherichia coli (bouillon agar, 2 weeks at 28° C., 60 to 70% relative humidity, read-out: MIC) it was 200 µg/mL (≈ 0.675 mM). Moreover, the Solubility in [1] (Ethyl acetate, 20° C.) came to 330 mg/mL (≈ 1110 mM); in [1] (Shellsol AB, 20° C.), 140 mg/mL (≈ 473 mM); in [1] (Solvesso 100, 20° C.) it was 200 mg/mL (≈ 675 mM); in data set [1] (Xylene, 20° C.), 250 mg/mL (≈ 844 mM). For the same molecule, the “solubility properties (in words)” value in [1] (particularly when compared to substance B) is given as “very good solubility properties”.
In the case of `CN(C)S(=O)(=O)N(SC(F)(Cl)Cl)c1ccccc1` [B], the MIC worked out at 20 µg/mL (≈ 0.06 mM) in the data set on Alternaria tenuis; 50 µg/mL (≈ 0.15 mM) in the data set with Aspergillus niger; 35 µg/mL (≈ 0.105 mM) in the data set on Cladosporium herbarum; 10 µg/mL (≈ 0.03 mM) against Coniophora cerebella; 20 µg/mL (≈ 0.06 mM) in the data set on Paecilomyces varioti (Paecilomyces); 150 µg/mL (≈ 0.45 mM) with Penicillium citrinum. The MIC in the data set on Penicillium glaucum (Penicillium) came out at 35 µg/mL (≈ 0.105 mM); in the data set on Pullularia pullulans, 20 µg/mL (≈ 0.06 mM); in the data set with Stachybotris atra C., 50 µg/mL (≈ 0.15 mM); in the data set on Trichoderma viride, 5000 µg/mL (≈ 15 mM); in the data set with Escherichia coli, 500 µg/mL (≈ 1.5 mM). Further, the Solubility in [1] (Ethyl acetate, 20° C.) is 117 mg/mL (≈ 351 mM); in [1] (Shellsol AB, 20° C.) it was 60 mg/mL (≈ 180 mM); in data set [1] (Solvesso 100, 20° C.), 75 mg/mL (≈ 225 mM); in data set [1] (Xylene, 20° C.) it was 65 mg/mL (≈ 195 mM).
